Reference: DBAASP
Converted amounts (≈) assume the structure as drawn. “And” between values parts separate entries of the source, which are not always exact repeats. Identical values can stand only once.

Experiments:
Test in all cases: ≥ marks a high value that may be exact or a test limit, other limits are often not marked, values filed in µg/mL are converted to µM
[1] = test system: Batrachochytrium dendrobatidis JEL-197
[2] = test system: Pseudomonas aeruginosa ATCC 9027
[3] = test system: Escherichia coli ATCC BAA-2340
[4] = test system: Staphylococcus aureus ATCC 12493
Staphylococcus aureus = test system: Staphylococcus aureus
[5] = test system: Candida albicans ATCC 10231
[6] = test system: Klebsiella pneumoniae ATCC 43816
[7] = test system: Staphylococcus aureus B038 V1S1A
[8] = test system: Staphylococcus aureus ATCC 43300
[9] = test system: Klebsiella pneumoniae ATCC BAA-1705
[10] = test system: Candida albicans ATCC 90028
[11] = test system: Staphylococcus aureus ATCC 6538
[12] = test system: Enterococcus faecalis NCTC 12697
[13] = test system: Pseudomonas aeruginosa CIP A22
[14] = test system: Vibrio aestuarianus CIP 109791T
[15] = test system: Enterococcus faecalis CIP 76.117
[16] = test system: Vibrio alginolyticus IFREMER
Vibrio splendidus LGP-32 = test system: Vibrio splendidus LGP-32
[17] = test system: Bacillus megaterium CIP 51.17
[18] = test system: Aeromonas salmonicida CIP 103209T
[19] = test system: Salmonella typhimurium LME, Caen
[20] = test system: Klebsiella pneumoniae CIP 52.145
[21] = test system: Staphylococcus aureus CIP 53.156
[22] = test system: Vibrio splendidus IFREMER
[23] = test system: Vibrio aestuarianus IFREMER
[24] = test system: Listeria monocytogenes LME, Caen
Vibrio splendidus SATMAR = test system: Vibrio splendidus SATMAR
[25] = test system: Escherichia coli CIP 54.8
[26] = test system: Vibrio vulnificus CIP 109783
[27] = test system: Stenotrophomonas maltophilia U8908
[28] = test system: Staphylococcus epidermidis T37/8
[29] = test system: Staphylococcus epidermidis RP62A/1
[30] = test system: Stenotrophomonas maltophilia B6/2
[31] = test system: Staphylococcus aureus ATCC 25923
[32] = test system: Stenotrophomonas maltophilia B32/4
[33] = test system: Enterococcus faecalis ATCC 29212
[34] = test system: Acinetobacter baumannii NM35
[35] = test system: Staphylococcus epidermidis T6/19
[36] = test system: Pseudomonas aeruginosa ATCC 27853
[37] = test system: Stenotrophomonas maltophilia B32/1
[38] = test system: Staphylococcus epidermidis RP62A
[39] = test system: Stenotrophomonas maltophilia B5/5
[40] = test system: Acinetobacter baumannii NM75
[41] = test system: Acinetobacter baumannii NM109
[42] = test system: Acinetobacter baumannii NM8
[43] = test system: Escherichia coli ATCC 25726
[44] = test system: Klebsiella pneumoniae ATCC 700603
[45] = test system: Staphylococcus aureus 145/08
[46] = test system: Acinetobacter baumannii NM124

`CC[C@H](C)[C@H](NC(=O)CN)C(=O)N[C@@H](CC(C)C)C(=O)N[C@@H](CC(=O)O)C(=O)N[C@@H](CO)C(=O)N[C@@H](Cc1ccccc1)C(=O)N[C@@H](CCCCN)C(=O)N[C@@H](CC(=O)O)C(=O)N[C@H](C(=O)N[C@@H](C)C(=O)N[C@@H](CCCCN)C(=O)NCC(=O)N[C@H](C(=O)N[C@@H](C)C(=O)N[C@H](C(=O)N[C@@H](Cc1cnc[nH]1)C(=O)N[C@@H](CC(C)C)C(=O)N[C@@H](CC(C)C)C(=O)N[C@@H](CC(N)=O)C(=O)N[C@@H](CCSC)C(=O)N[C@@H](C)C(=O)N[C@@H](CCCCN)C(=O)N[C@H]1CSSC[C@@H](C(=O)O)NC(=O)CNC(=O)[C@H]([C@@H](C)O)NC(=O)[C@H](CCSC)NC(=O)[C@H](CCCCN)NC1=O)[C@@H](C)O)C(C)C)C(C)C` [GILDSFKDVAKGVATHLLNMAKCKMTGC] gave an MIC [1] of no less than 100 µM.
For `CC[C@H](C)[C@H](NC(=O)[C@H](CCCCN)NC(=O)[C@@H](NC(=O)[C@H](CO)NC(=O)[C@H](CC(N)=O)NC(=O)[C@H](Cc1c[nH]c2ccccc12)NC(=O)[C@H](CC(C)C)NC(=O)CN)[C@@H](C)CC)C(=O)N[C@@H](C)C(=O)NCC(=O)N[C@@H](CCCCN)C(=O)N[C@@H](CCCCN)C(=O)N[C@@H](CC(C)C)C(=O)N[C@@H](Cc1ccccc1)C(=O)N[C@H](C(=O)N[C@@H](CC(N)=O)C(=O)N[C@H](C(=O)N[C@@H](CC(C)C)C(=O)N[C@@H](CC(=O)O)C(=O)N[C@@H](CCCCN)C(=O)N[C@H](C(=O)N[C@@H](CCCN=C(N)N)C(=O)N[C@H]1CSSC[C@@H](C(=O)O)NC(=O)CNC(=O)CNC(=O)[C@H](C)NC(=O)[C@H](C(C)C)NC(=O)[C@H](CCCCN)NC1=O)[C@@H](C)CC)C(C)C)C(C)C` [GLWNSIKIAGKKLFVNVLDKIRCKVAGGC], the MIC [2] was 16 µM (≈ 50.1 µg/mL), the MIC [3] was 2 µM (≈ 6.26 µg/mL) and the MIC [4] was 8 µM (≈ 25 µg/mL). It also gave an MIC (Staphylococcus aureus) of 4 µM (≈ 12.5 µg/mL), an MIC [5] of 128 µM (≈ 401 µg/mL) and an MIC [6] of 8 µM (≈ 25 µg/mL). The MIC [7] was 2 µM (≈ 6.26 µg/mL), the MIC [8] was 12.5 µM (≈ 39.1 µg/mL) and the MIC [9] was 4 µM (≈ 12.5 µg/mL). The MIC [10] was no less than 100 µM, the MIC [11] was 1.6 µM and 4 µM and the MIC [12] was 16 µM (≈ 50.1 µg/mL).
`CC(C)C[C@H](NC(=O)CNC(=O)[C@H](Cc1ccccc1)NC(=O)[C@H](Cc1ccccc1)NC(=O)[C@H](CC(C)C)NC(=O)CNC(=O)[C@H](Cc1ccccc1)NC(=O)[C@H](CC(C)C)NC(=O)[C@@H]1CCCN1C(=O)[C@H](CCCCN)NC(=O)[C@H](CCCCN)NC(=O)[C@H](CCCCN)NC(=O)[C@@H](N)CCCCN)C(=O)N[C@@H](Cc1ccccc1)C(=O)O` [KKKKPLFGLFFGLF] showed an MIC [13] of no less than 33.9 µM, an MIC [14] of 14.1 µM (≈ 23.6 µg/mL) and an MIC [15] of no less than 67.7 µM. The MIC [16] was 4.23 µM (≈ 7.07 µg/mL), the MIC (Vibrio splendidus LGP-32) was 24.5 µM (≈ 40.9 µg/mL) and the MIC [17] was 4.23 µM (≈ 7.07 µg/mL). The MIC [18] was 14.1 µM (≈ 23.6 µg/mL), the MIC [19] was no less than 33.9 µM and the MIC [20] was no less than 33.9 µM. The MIC [21] was 8.47 µM (≈ 14.1 µg/mL), the MIC [22] was 8.47 µM (≈ 14.1 µg/mL) and the MIC [23] was 4.23 µM (≈ 7.07 µg/mL). For the same compound, the MIC [24] was 16.9 µM (≈ 28.3 µg/mL), the MIC (Vibrio splendidus SATMAR) was 14.1 µM (≈ 23.6 µg/mL) and the MIC [25] was 4.23 µM (≈ 7.07 µg/mL). For the same compound, the MIC [26] was no less than 50 µM.
`CC[C@H](C)[C@H](NC(=O)[C@H](C)NC(=O)[C@@H](NC(=O)[C@H](C)NC(=O)CNC(=O)[C@H](CCCCN)NC(=O)[C@@H](NC(=O)[C@H](C)NC(=O)CNC(=O)[C@H](CCCCN)NC(=O)[C@H](CC(C)C)NC(=O)[C@@H](NC(=O)[C@H](CCCCN)NC(=O)[C@H](CCCCN)NC(=O)[C@H](CC(C)C)NC(=O)[C@@H](NC(=O)[C@H](CC(=O)O)NC(=O)[C@H](CCCCN)NC(=O)[C@@H](NC(=O)[C@H](CCCCN)NC(=O)[C@@H]1CCCN1C(=O)[C@H](CO)NC(=O)[C@H](CC(C)C)NC(=O)[C@H](CCCCN)NC(=O)[C@@H](N)CC(C)C)[C@@H](C)O)[C@@H](C)O)C(C)C)[C@@H](C)CC)[C@@H](C)CC)C(=O)N[C@@H](C)C(=O)N[C@@H](CO)C(=O)N[C@@H](CCSC)C(=O)N[C@@H](C)C(N)=O` [LKLSPKTKDTLKKVLKGAIKGAIAIASMA] showed an MIC [27] of 5 µM (≈ 15 µg/mL), an MIC [28] of 1.25 µM (≈ 3.74 µg/mL) and an MIC [29] of 1.25 µM (≈ 3.74 µg/mL). The MIC [30] was 1.25 µM (≈ 3.74 µg/mL), the MIC [31] was 2.5 µM (≈ 7.49 µg/mL) and the MIC [32] was 1.25 µM (≈ 3.74 µg/mL). For the same compound, the MIC [33] was 20 µM (≈ 59.9 µg/mL), the MIC [34] was 5 µM (≈ 15 µg/mL) and the MIC [35] was 1.25 µM (≈ 3.74 µg/mL). For the same compound, the MIC [36] was 20 µM (≈ 59.9 µg/mL), the MIC [37] was 2.5 µM (≈ 7.49 µg/mL) and the MIC [38] was 1.25 µM (≈ 3.74 µg/mL). The MIC [39] was 2.5 µM (≈ 7.49 µg/mL), the MIC [40] was 2.5 µM (≈ 7.49 µg/mL) and the MIC [41] was 5 µM (≈ 15 µg/mL). For the same compound, the MIC [42] was 5 µM (≈ 15 µg/mL), the MIC [43] was 10 µM and 5 µM and the MIC [44] was 10 µM (≈ 29.9 µg/mL). For the same compound, the MIC [10] was no less than 80 µM, the MIC [45] was 2.5 µM (≈ 7.49 µg/mL) and the MIC [46] was 2.5 µM (≈ 7.49 µg/mL).
